pIC50: −log10 of the molar value. Converted amounts (≈) assume the structure as drawn. Square brackets hold non-standard residues; d marks the D form. Peptide text beside a SMILES is read from it.
Tests used:
Assay type in all cases: cell-based
[1] = tested on: bacterial strains; assay: organism not typed
Description: (§1) Three preferred peptides G11.46, G12.21 and G14.15, discussed above, were further tested for antimicrobial efficacy under various conditions using the 10% FCS/DMEM assay as described under CFU assay. The incubation times with the bacteria and peptide was three hours, at which time the bacteria were diluted and plated on agar. […] The MIC for each compound is highlighted.
Table 9 below repeats some data presented above in Tables 6, 7, and 8.

[2] = tested on: B. cereus; details: pH 7.2
Method in brief: (§2)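 Peptides were diluted in 10 mM phosphate buffer, pH 7.2 with 0.03% LB and incubated with bacteria (~5×10^6 CFU/ml) for 3 h at 37 °C in microtiter wells. LB was then added, growth continued overnight, and OD 600 nm was read. MIC is the lowest concentration with no growth; IC50 gives 50% growth versus medium.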

[3] = tested on: E. coli DH5a; details: DH5a
Method in brief: as §2

[4] = tested on: B. cereus; assay: CFU assay in 10% FCS/DMEM; details: 3 hrs
Description: (§3) The CFU assay is the “gold standard” for evaluating antibiotics. Briefly, bacteria are grown overnight in rich medium, such as LB, and then diluted and grown in log phase for 2-4 hours. Cultures are set up as above, with the initial culture media being 10 mM phosphate buffer/0.03% LB; DMEM or RPMI; or DMEM or RPMI plus 10% serum (fetal calf, human, or mouse). After various periods of time, but generally 3 hours or less, aliquots are removed, diluted in LB at various dilutions, and plated on LB agar plates. Plates are incubated overnight at 37° C. and counted on an automatic colony counter.
as §1

[5] = tested on: Staphylococcus aureus; assay: CFU assay in 10% FCS/DMEM; details: 3 hrs
Description: as §3, §1

[6] = tested on: Salmonella typhimurium; assay: CFU assay in 10% FCS/DMEM; details: 3 hrs
Description: as §3, §1

[7] = tested on: E. coli; assay: CFU assay in 10% FCS/DMEM; details: 3 hrs
Description: as §3, §1

[8] = tested on: candida albicans SC5314; assay: Percent survival of Candida albicans in phosphate buffer; design: dose or concentration left out as unconfirmed; details: 37° C., 90 min. incubation
Excerpt: Germ tube formation is essential to Candida toxicity, so agents that prevent this (even in the absence of killing the organism) could have significant activity in vivo.

[9] = tested on: bacteria; assay: Activity in DMEM and RPMI media (lysis of bacteria); details: either 10 mM phosphate buffer or DMEM
Description: as §3
In the column “Active in DMEM”, a blank means no activity. MAP stands for multiple antigenic peptide, where a number of identical peptide chains are synthesized and joined to a common core (like a dendrimer).
The peptides listed in Table 2 were tested in DMEM and RPMI, media that approximate blood and tissue conditions in vivo and those that were active under these conditions are listed in the last column (active in DMEM). […] No peptides that were all L-isomer peptides lysed bacteria in DMEM supplemented with serum.
The hydrophobic moment is a measure of amphipathicity and indicates how well the hydrophobic residues fall on one side of the helix while the hydrophilic residues fall on the opposite side is shown in column 7. This was determined using the Membrane Explorer Program (http://blanco.biomol.uci.edu/mpex/). A high number indicates a high hydrophobic moment. Column 8 again (like Table 2) indicates which of these peptides is active in DMEM.

[10] = tested on: antibiotic resistant bacteria obtained from clinical isolates; assay: Susceptibility of antibiotic resistant clinical isolates in DMEM with or without serum
Description: In addition to the data given above, the susceptibility of a panel of antibiotic resistant bacteria obtained from clinical isolates was tested. All of these are killed by the G11.46, G12.21, and G14.15 in DMEM with or without serum.

Structure (SMILES): CSCC[C@H](NC(=O)[C@H](Cc1ccccc1)NC(=O)[C@@H](CCCNC(=N)N)NC(=O)[C@@H](CCCNC(=N)N)NC(=O)[C@H](CO)NC(=O)[C@@H](NC(=O)[C@@H](CCCNC(=N)N)NC(=O)[C@@H](CCCNC(=N)N)NC(=O)[C@@H](CCCNC(=N)N)NC(=O)[C@@H](CCCNC(=N)N)NC(=O)[C@@H](CCCNC(=N)N)NC(=O)[C@@H](CCCNC(=N)N)NC(=O)[C@H](N)CCCNC(=N)N)C(C)C)C(=O)N[C@H](CCCNC(=N)N)C(=O)N[C@H](CCCNC(=N)N)C(=O)O [Peptide G11.46, rrrrrrrVSrrFMrr] (H-[dR][dR][dR][dR][dR][dR][dR]VS[dR][dR]FM[dR][dR]-OH; N-terminus and C-terminus assumed)
- MIC ([1]; ATCC#25922, 3 h): 0.32 to 0.63 µM
- MIC ([1]; ATCC#29213, 3 h): 0.04 to 0.08 µM
- MIC ([1]; ATCC#53522, 3 h): 0.02 µM (≈ 0.044 µg/mL)
- MIC ([1]; SL1344, 3 h): 0.63 to 1.25 µM
- B. cereus MIC [2]: 0.35 µM
- pIC50 [2]: 6.70
- MIC [3]: 0.8 µM (≈ 1.76 µg/mL)
- E. coli DH5a MIC ([3]; pH 7.2): 0.8 µM
- pIC50 ([3]; pH 7.2): 7.00
- % Survival (CFU Assay) ([4]; 0.005 uM): 103.49%
- % Survival (CFU Assay) ([4]; 0.01 uM): 44.62%
- % Survival (CFU Assay) ([4]; 0.02 uM): <0.5%
- % Survival (CFU Assay) ([4]; 0.04 uM): 0.02%
- % Survival (CFU Assay) ([4]; 0.08 uM): 0.002%
- % Survival (CFU Assay) ([4]; 0.16 uM): 0.002%
- % Survival (CFU Assay) ([5]; 0.005 μM): 19.9%
- % Survival (CFU Assay) ([5]; 0.01 μM): 8.04%
- % Survival (CFU Assay) ([5]; 0.02 μM): 2.3%
- % Survival (CFU Assay) ([5]; 0.04 μM): 0.84%
- % Survival (CFU Assay) ([5]; 0.08 μM): 0.2%
- % Survival (CFU Assay) ([5]; 0.16 μM): 0.02%
- % Survival (CFU Assay) ([6]; 0.02 μM): 116.09%
- % Survival (CFU Assay) ([6]; 0.04 μM): 126.32%
- % Survival (CFU Assay) ([6]; 0.08 μM): 105%
- % Survival (CFU Assay) ([6]; 0.16 μM): 71.35%
- % Survival (CFU Assay) ([6]; 0.32 μM): 24.68%
- % Survival (CFU Assay) ([6]; 0.63 μM): 1.45%
- % Survival (CFU Assay) ([6]; 1.25 μM): 0.03%
- % Survival (CFU Assay) ([6]; 2.5 μM): <0.002%
- % Survival (CFU Assay) ([7]; 0.01 μM): 98.89%
- % Survival (CFU Assay) ([7]; 0.02 μM): 166.22%
- % Survival (CFU Assay) ([7]; 0.04 μM): 132.25%
- % Survival (CFU Assay) ([7]; 0.08 μM): 89.24%
- % Survival (CFU Assay) ([7]; 0.16 μM): 31.77%
- % Survival (CFU Assay) ([7]; 0.32 μM): 2.02%
- % Survival (CFU Assay) ([7]; 0.63 μM): <0.002%
- % Survival (CFU Assay) ([7]; 1.25 μM): <0.002%
- activity against candida albicans SC5314 [8]: active
- lysis of bacteria and fungi [9]: lyse both gram negative bacteria and gram negative bacteria, as well as fungi
- killing of antibiotic resistant clinical isolates [10]: killed
